The conditions of data set [1]: read-out: CC50 (cellular cytotoxicity); cited from earlier work.
In data set [2] the test system is HIV-1. The conditions noted are these: cited from earlier work.
Data set [3] concerns HBV wild-type strain ayw1 in HepG2 2.2.15 cells. As to the kind of experiment: Primary anti-HBV assay: extracellular HBV DNA copy number by real-time qPCR (TaqMan). The format is cell-based, Hepatitis B virus. The procedure:
(§1) The primary anti-HBV assay is performed as previously described (Korba, B F and Milman, G. A cell culture assay for compound which inhibit hepatitis B virus replication. Antiviral Res. 1991, 15, 217-228; and Korba, B F and Gerin, J L. Use of a standardized cell culture assay to assess activities of nucleoside analogs again hepatitis B virus replication. Antiviral Res. 1992, 19, 55-70) with modifications to use real-time qPCR (TaqMan) to measure extracellular HBV DNA copy number associated with virions released from HepG2 2.2.15 cells. The HepG2 2.2.15 cell line is a stable human hepatoblastoma cell line that contains two copies of the HBV wild-type strain ayw1 genome and constitutively produces high levels of HBV. Antiviral compounds blocking any late step of viral replication such as transcription, translation, pregenome encapsidation, reverse transcription, particle assembly and release can be identified and characterized using this cell line.
(§2) Briefly, HepG2 2.2.15 cells are plated in 96-well microtiter plates at 1.5×10^4 cells/well in Dulbecco's Modified Eagle's Medium supplemented with 2% FBS, 380 μg/mL G418, 2.0 mM L-Glutamine, 100 units/mL Penicillin, 100 μg/mL Streptomycin, and 0.1 mM non-essential amino acids. Only the interior wells are utilized to reduce “edge effects” observed during cell culture; the exterior wells are filled with complete medium to help minimize sample evaporation. After 16-24 hours the confluent monolayer of HepG2 2.2.15 cells is washed and the medium is replaced with complete medium containing various concentrations of a test compound in triplicate Lamivudine (3TC) is used as the positive control, while media alone is added to cells as a negative control (virus control, VC). Three days later the culture medium is replaced with fresh medium containing the appropriately diluted test compounds. Six days following the initial administration of the test compound, the cell culture supernatant is collected, treated with pronase and then used in a real-time quantitative TaqMan qPCR assay. The PCR-amplified HBV DNA is detected in real-time by monitoring increases in fluorescent signal that result from the exonucleolytic degradation of a quenched fluorescent probe molecule that hybridizes to the amplified HBV DNA. For each PCR amplification, a standard curve is simultaneously generated using dilutions of purified HBV DNA. Antiviral activity is calculated from the reduction in HBV DNA levels (EC50 & EC90 values determined). A tetrazolium dye (MTS; 3-(4,5-dimethylthiazol-2-yl)-5-(3-carboxy-methoxyphenyl)-2-(4-sulfophenyl)-2H-tetrazolium; CellTiter®96 Reagent, Promega) uptake assay is then employed to measure cell viability, which is used to calculate toxicity (CC50). The Selectivity Index (SI50) is calculated as CC50/IC50.
(In general: In qPCR the cycle at which signal appears reflects the starting amount.)

Data set [4] has as its system HIV-2. The conditions noted are these: cited from earlier work.
Data set [5] is described as follows: MTS tetrazolium dye uptake cell viability assay (primary assay). Format: cell-based, human. The conditions noted are these: human, HepG2 2.2.15 cells. As for the experimental part:
as §2

The test system of data set [6] is HBV wild-type strain ayw1 in HepG2 2.2.15 cells. Briefly: microbe, parasite or virus in culture. Format: cell-based. The following applies: Hepatitis B virus. The procedure:
as §1
Briefly, HepG2 2.2.15 cells are plated in 96-well microtiter plates at 1.5×10^4 cells/well in Dulbecco's Modified Eagle's Medium supplemented with 2% FBS, 380 μg/mL G418, 2.0 mM L-Glutamine, 100 units/mL Penicillin, 100 μg/mL Streptomycin, and 0.1 mM non-essential amino acids. Only the interior wells are utilized to reduce “edge effects” observed during cell culture; the exterior wells are filled with complete medium to help minimize sample evaporation. After 16-24 hours the confluent monolayer of HepG2 2.2.15 cells is washed and the medium is replaced with complete medium containing various concentrations of a test compound in triplicate Lamivudine (3TC) is used as the positive control, while media alone is added to cells as a negative control (virus control, VC). Three days later the culture medium is replaced with fresh medium containing the appropriately diluted test compounds. Six days following the initial administration of the test compound, the cell culture supernatant is collected, treated with pronase and then used in a real-time quantitative TaqMan qPCR assay. The PCR-amplified HBV DNA is detected in real-time by monitoring increases in fluorescent signal that result from the exonucleolytic degradation of a quenched fluorescent probe molecule that hybridizes to the amplified HBV DNA. For each PCR amplification, a standard curve is simultaneously generated using dilutions of purified HBV DNA. Antiviral activity is calculated from the reduction in HBV DNA levels (EC50 & EC90 values determined). A tetrazolium dye (MTS; 3-(4,5-dimethylthiazol-2-yl)-5-(3-carboxy-methoxyphenyl)-2-(4-sulfophenyl)-2H-tetrazolium; CellTiter®96 Reagent, Promega) uptake assay is then employed to measure cell viability, which is used to calculate toxicity (CC50). The Selectivity Index (SI50) is calculated as CC50/IC50. […]

Data set [7] in a line: in vitro. The format is cell-based. The conditions noted are these: human; HepG2 2.2.15 cells, secondary assay. As for the experimental part: Briefly, HepG2 2.2.15 cells are plated in 96-well microtiter plates at 1.5×10^4 cells/well in Dulbecco's Modified Eagle's Medium supplemented with 2% FBS, 380 μg/mL G418, 2.0 mM L-Glutamine, 100 units/mL Penicillin, 100 μg/mL Streptomycin, and 0.1 mM non-essential amino acids. Only the interior wells are utilized to reduce “edge effects” observed during cell culture; the exterior wells are filled with complete medium to help minimize sample evaporation. After 16-24 hours the confluent monolayer of HepG2 2.2.15 cells is washed and the medium is replaced with complete medium containing various concentrations of a test compound in triplicate Lamivudine (3TC) is used as the positive control, while media alone is added to cells as a negative control (virus control, VC). […] Six days following the initial administration of the test compound, the cell culture supernatant is collected, treated with pronase and then used in a real-time quantitative TaqMan qPCR assay. The PCR-amplified HBV DNA is detected in real-time by monitoring increases in fluorescent signal that result from the exonucleolytic degradation of a quenched fluorescent probe molecule that hybridizes to the amplified HBV DNA. […] Antiviral activity is calculated from the reduction in HBV DNA levels (EC50 & EC90 values determined). […] The Selectivity Index (SI50) is calculated as CC50/IC50. […]

Data set [8] has as its system HepG2 2.2.15 cells. Briefly: MTS tetrazolium dye uptake cell viability assay (primary assay). The format is cell-based, human. The procedure: as §2
(Tetrazolium assays rely on reduction of a dye to a coloured formazan, in cell work by metabolically active cells.)

The mark [9] stands for this setting: Hepatitis B virus, 144 h, reduction in extracellular HBV DNA, HepG2 2.2.15 cells, six days, read-out: EC50.
Setting [10] is: Hepatitis B virus, 144 h, reduction in extracellular HBV DNA, HepG2 2.2.15 cells, six days, read-out: EC90.
[11] abbreviates: Hepatitis B virus, HepG2 2.2.15, 144 h.

Data on eleven compounds can be found in US10087209B2, “Antiviral compounds, a process for their preparation, and their use for treating viral infections” (KU LEUVEN RESEARCH & DEVELOPMENT, priority 2015, dated 2018).

The CC50 is the concentration at which the toxic effect on the cells reaches its halfway point. As usually defined, the EC50 is the concentration giving half of the maximal effect. One may read the EC90 as the concentration at which the effect reaches the 90% level. In general, IC50 refers to the point on the concentration scale where inhibition reaches its midpoint.

Structures can show the parent of a compound that is named as a salt.

Take `Nc1ncnc2c1ncn2[C@H]1C[C@@H](OCP(=O)(O)O)CO1` [PMDTA, 1′α-(Adenin-9-yl)-2′-deoxy-3′-O-phosphonomethyl-L-threose triethylammonium salt, reference compound]: in data set [1], the CC50 was above 316 µM. Further, the EC50 in data set [2] (read-out: EC50 value against HIV-1) was 2.53 µM; in data set [3] (setting [9]), 0.5 µM; in data set [4] (read-out: EC50 value against HIV-2), 2.53 µM. Moreover, in data set [3] (setting [10]), the EC90 was above 100 µM. Further, the CC50 at 6 days in data set [5] is above 100 µM.

With `CC(C)OC(=O)[C@H](C)NP(=O)(CO[C@H]1CO[C@@H](n2cnc3c(N)ncnc32)C1)Oc1ccccc1` (some centres unmarked) [compound 17], in data set [3] (setting [11]), the EC50 stood at 0.03 µM and the EC90 is above 10 µM. Moreover, the CC50 at 6 days in data set [5] is above 10 µM.

Regarding `Cc1cn([C@H]2C[C@@H](OCP(=O)(N[C@@H](CC(=O)OCCC(C)C)C(=O)OCCC(C)C)Oc3ccccc3)CO2)c(=O)[nH]c1=O` (some centres unmarked) [compound 21], in data set [3] (setting [11]), the EC50 amounted to 0.25 µM and the EC90 was above 10 µM. Besides, the midpoint of cytotoxicity in data set [5], the CC50 at 6 days, lay at 59.6 µM.

In data set [3] (setting [11]), `Cc1cn([C@H]2C[C@@H](OCP(=O)(N[C@@H](C)C(=O)OC(C)C)Oc3ccccc3)CO2)c(=O)[nH]c1=O` (some centres unmarked) [compound 20] returned an EC50 of 0.26 µM and a concentration for an effect of 90% (EC90) above 10 µM. Further, the CC50 at 6 days in data set [5] is above 100 µM.

Turning to `Nc1ccn([C@@H]2CS[C@H](CO)O2)c(=O)n1` [3TC (Lamivudine), Lamivudine, reference compound], the EC50 was 0.03 µM in data set [3] (setting [9]) and below 0.01 µM in data set [6] (reduction in intracellular HBV DNA, HepG2 2.2.15 cells, read-out: EC50). Also, the EC90 in data set [3] (setting [10]) is above 2 µM; in data set [6] (reduction in intracellular HBV DNA, HepG2 2.2.15 cells, read-out: EC90), above 2 µM. For the same compound, the CC50 at 6 days in data set [5] is above 2 µM.

Turning to `CC(C)OC(=O)[C@H](C)NP(=O)(CO[C@H]1CO[C@@H](n2ccc(N)nc2=O)C1)Oc1ccccc1` (stereo partly drawn) [compound 32, 1′α-(Cytosin-1-yl)-2′-deoxy-3′-O—{[N-(isopropyl-L-alaninate)](phenoxy)-methylphosphonoamidate}-L-threose], in data set [3] (setting [11]), the EC50 was 47.9 µM and the EC90 is above 100 µM. In data set [5], this compound yielded a CC50 at 6 days above 100 µM.

For the compound `CCCOC(=O)[C@H](Cc1ccccc1)NP(=O)(CO[C@H]1CO[C@@H](n2cnc3c(=O)[nH]c(N)nc32)C1)N[C@@H](Cc1ccccc1)C(=O)OCCC` [compound 39], the EC50 in data set [3] (setting [9]) is above 100 µM. The EC90 in data set [3] (setting [10]) is above 100 µM. Moreover, the CC50 at 6 days in data set [5] was above 100 µM.

As for `CC(C)CCOC(=O)C[C@H](NP(=O)(CO[C@H]1CO[C@@H](n2cnc3c(N)ncnc32)C1)Oc1ccccc1)C(=O)OCCC(C)C` (some centres unmarked) [compound 18], the EC50 in data set [3] (setting [11]) is 0.01 µM; in data set [6] (HepG2 2.2.15), below 0.01 µM. Further, the concentration for an effect of 90% (EC90) in data set [3] (setting [11]) was found to be 0.98 µM; in data set [6] (HepG2 2.2.15) it was 0.36 µM. The CC50 at 6 days in data set [5] amounted to 55.5 µM; in data set [7], 35.2 µM.

In data set [3] (setting [11]), `CC(C)OC(=O)[C@H](C)NP(=O)(CO[C@H]1CO[C@@H](n2cnc3c(=O)[nH]c(N)nc32)C1)Oc1ccccc1` (some centres unmarked) [compound 40] gave an EC50 above 100 µM and a 90% effect concentration (EC90) above 100 µM. This compound returned a CC50 at 6 days in data set [5] above 100 µM.

On to `Cc1cn([C@H]2C[C@@H](OCP(=O)(O)O)CO2)c(=O)[nH]c1=O` [PMDTT, 1′α-(Thymin-1-yl)-2′-deoxy-3′-O-phosphonomethyl-L-threose triethylammonium salt, reference compound], for which the CC50 in data set [1] is above 343 µM. The IC50 in data set [2] (read-out: IC50 value against HIV-1) and in data set [4] (read-out: IC50 value against HIV-2) was 6.59 µM each time. Besides, in data set [3] (setting [9]), the EC50 came to 40.2 µM. The 90% effect concentration (EC90) in data set [3] (setting [10]) was above 100 µM. In addition, the CC50 at 6 days in data set [5] is above 100 µM.

Regarding `CC(C)OC(=O)[C@H](C)NP(=O)(COC1COC(n2cnc3c(=O)[nH]c(N)nc32)C1)Oc1ccccc1` (stereo partly drawn) [compound 41, 1′α-(Guanin-9-yl)-2′-deoxy-3′-O—{[N-(isopropyl-L-alaninate)](phenoxy)-methylphosphonoamidate}-L-threose], the EC50 in data set [3] (reduction in extracellular HBV DNA, HepG2 2.2.15 cells, six days, read-out: EC50) is above 100 µM. Moreover, in data set [3] (reduction in extracellular HBV DNA, HepG2 2.2.15 cells, six days, read-out: EC90), the EC90 is above 100 µM. For the same compound, the CC50 in data set [8] was above 100 µM.
